These compounds were tested against BTK (Homo sapiens (Human), UniProt Q06187) (assay: BTK inhibitory activity). Conditions: not given.
Assay type: biochemical

Sequence of BTK (Q06187 whole entry, looked up): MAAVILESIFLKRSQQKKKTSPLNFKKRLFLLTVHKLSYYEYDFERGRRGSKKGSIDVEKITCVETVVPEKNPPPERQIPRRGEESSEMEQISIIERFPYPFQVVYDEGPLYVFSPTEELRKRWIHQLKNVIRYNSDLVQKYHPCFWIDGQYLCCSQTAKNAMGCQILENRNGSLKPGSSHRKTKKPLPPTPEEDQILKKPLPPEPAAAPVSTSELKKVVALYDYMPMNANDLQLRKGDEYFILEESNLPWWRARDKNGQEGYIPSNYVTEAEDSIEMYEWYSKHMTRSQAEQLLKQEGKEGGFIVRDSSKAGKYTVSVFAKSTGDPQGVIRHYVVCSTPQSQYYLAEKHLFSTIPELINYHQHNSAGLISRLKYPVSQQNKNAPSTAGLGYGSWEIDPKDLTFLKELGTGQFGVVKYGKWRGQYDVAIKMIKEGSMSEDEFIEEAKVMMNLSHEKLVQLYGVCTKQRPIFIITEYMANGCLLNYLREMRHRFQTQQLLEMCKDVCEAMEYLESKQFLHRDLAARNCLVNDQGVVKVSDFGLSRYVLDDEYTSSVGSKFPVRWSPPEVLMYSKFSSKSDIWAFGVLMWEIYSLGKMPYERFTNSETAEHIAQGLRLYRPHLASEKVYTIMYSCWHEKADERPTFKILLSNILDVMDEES

Structure (SMILES) | IC50
C=CC(=O)N1CC[C@H](Nc2nc(CN3CCOCC3)cc(Nc3ncc(C(=O)Nc4c(C)cccc4Cl)s3)n2)C1 [Compound I-1] | 1.61 nM
C=CC(=O)N1CC[C@H](Nc2nc(CN3CCOCC3)cc(Nc3ncc(C(=O)Nc4c(C)cccc4C)s3)n2)C1 [Compound I-2] | 1.63 nM
C=CC(=O)N1CC[C@H](Nc2nccc(Nc3ncc(C(=O)Nc4c(C)cccc4C)s3)n2)C1 [Compound I-3] | 0.6 nM
C=CC(=O)N1CC[C@@H](Nc2nccc(Nc3ncc(C(=O)Nc4c(C)cccc4C)s3)n2)C1 [Compound I-4] | 1.38 nM
C=CC(=O)N1CCC[C@@H](Nc2nccc(Nc3ncc(C(=O)Nc4c(C)cccc4C)s3)n2)C1 [Compound I-6] | 1.9 nM
C=CC(=O)N1CCCCC(Nc2nccc(Nc3ncc(C(=O)Nc4c(C)cccc4C)s3)n2)C1 (stereo not drawn) [Compound I-7] | < 0.495 nM
C=CC(=O)N1CCC(CNc2nccc(Nc3ncc(C(=O)Nc4c(C)cccc4C)s3)n2)C1 (stereo not drawn) [Compound I-8] | < 0.495 nM
CCC(=O)N1CC[C@H](Nc2nccc(Nc3ncc(C(=O)Nc4c(C)cccc4C)s3)n2)C1 [Compound I-9] | 0.5 nM
C=CC(=O)N1CC[C@H](Nc2nccc(Nc3ncc(C(=O)Nc4c(C)cccc4Cl)s3)n2)C1 [Compound I-10] | 1.74 nM
C=CC(=O)N1CCCCC(Nc2nccc(Nc3ncc(C(=O)Nc4c(C)cccc4Cl)s3)n2)C1 (stereo not drawn) [Compound I-11] | 5.52 nM
C=CC(=O)N1CCCC(Cn2ccc(Nc3ncc(C(=O)Nc4c(C)cccc4Cl)s3)n2)C1 (stereo not drawn) [II-2] | < 0.495 nM

These compounds were tested on OCI-Ly3 (assay: CellTiter-Glo Luminescent cell viability assay). Conditions: cell survival, 72 hours.
Assay type: cell-based
Description: (§1) The inhibitory activities of exemplary compounds described herein against select protein kinases and cells were determined. Cell survival following treatment of exemplary compounds described herein was assessed by CellTiter-Glo® Luminescent cell viability assay (Promega). The cells were seeded into 384 well plates with the EL406 Combination Washer Dispenser (BioTek Instruments, Inc.), and a series diluted exemplary compounds (20˜0.0006 μM) were injected into the culture media with the JANUS Automated Workstation (PerkinElmer Inc.). The cells were treated for 72 hours at 37° C. with 5% CO2. Luminescent measurement is performed using the 2104 Envision® Multilabel Reader (PerkinElmer Inc.). EC50 values were calculated with […] PRISM software.

Structure (SMILES) | EC50
C=CC(=O)N1CC[C@H](Nc2nc(CN3CCOCC3)cc(Nc3ncc(C(=O)Nc4c(C)cccc4C)s3)n2)C1 [Compound I-2] | > 20 µM
C=CC(=O)N1CC[C@H](Nc2nccc(Nc3ncc(C(=O)Nc4c(C)cccc4C)s3)n2)C1 [Compound I-3] | 39.5 µM
CCC(=O)N1CC[C@H](Nc2nccc(Nc3ncc(C(=O)Nc4c(C)cccc4C)s3)n2)C1 [Compound I-9] | 14.5 µM

Each compound was assayed on OCI-Ly7 (assay: CellTiter-Glo Luminescent cell viability assay). Conditions: cell survival, 72 hours.
Assay type: cell-based
Description: as §1

Structure (SMILES) | EC50
C=CC(=O)N1CC[C@H](Nc2nccc(Nc3ncc(C(=O)Nc4c(C)cccc4C)s3)n2)C1 [Compound I-3] | 370 nM
C=CC(=O)N1CCC[C@@H](Nc2nccc(Nc3ncc(C(=O)Nc4c(C)cccc4C)s3)n2)C1 [Compound I-6] | 520 nM

Each compound was assayed on OCI-Ly19 (assay: CellTiter-Glo Luminescent cell viability assay). Conditions: cell survival, 72 hours.
Assay type: cell-based
Description: as §1

Structure (SMILES) | EC50
C=CC(=O)N1CC[C@H](Nc2nc(CN3CCOCC3)cc(Nc3ncc(C(=O)Nc4c(C)cccc4C)s3)n2)C1 [Compound I-2] | > 20 µM
C=CC(=O)N1CC[C@H](Nc2nccc(Nc3ncc(C(=O)Nc4c(C)cccc4C)s3)n2)C1 [Compound I-3] | 13 µM
C=CC(=O)N1CC[C@@H](Nc2nccc(Nc3ncc(C(=O)Nc4c(C)cccc4C)s3)n2)C1 [Compound I-4] | 4.27 µM
C=CC(=O)N1CCCCC(Nc2nccc(Nc3ncc(C(=O)Nc4c(C)cccc4C)s3)n2)C1 (stereo not drawn) [Compound I-7] | 0.399 µM
C=CC(=O)N1CCC(CNc2nccc(Nc3ncc(C(=O)Nc4c(C)cccc4C)s3)n2)C1 (stereo not drawn) [Compound I-8] | 3.77 µM
CCC(=O)N1CC[C@H](Nc2nccc(Nc3ncc(C(=O)Nc4c(C)cccc4C)s3)n2)C1 [Compound I-9] | 10 µM
C=CC(=O)N1CC[C@H](Nc2nccc(Nc3ncc(C(=O)Nc4c(C)cccc4Cl)s3)n2)C1 [Compound I-10] | 5.7 µM
C=CC(=O)N1CCCCC(Nc2nccc(Nc3ncc(C(=O)Nc4c(C)cccc4Cl)s3)n2)C1 (stereo not drawn) [Compound I-11] | 3.68 µM
C=CC(=O)N1CCCC(Cn2ccc(Nc3ncc(C(=O)Nc4c(C)cccc4Cl)s3)n2)C1 (stereo not drawn) [II-2] | 6.54 µM

What follows are compounds tested on BCWM.1 (assay: CellTiter-Glo Luminescent cell viability assay). Conditions: cell survival, 72 hours.
Assay type: cell-based
Description: as §1

Structure (SMILES) | EC50
C=CC(=O)N1CC[C@H](Nc2nc(CN3CCOCC3)cc(Nc3ncc(C(=O)Nc4c(C)cccc4Cl)s3)n2)C1 [Compound I-1] | 73.4 nM
C=CC(=O)N1CC[C@H](Nc2nc(CN3CCOCC3)cc(Nc3ncc(C(=O)Nc4c(C)cccc4C)s3)n2)C1 [Compound I-2] | 41 nM
C=CC(=O)N1CC[C@H](Nc2nccc(Nc3ncc(C(=O)Nc4c(C)cccc4C)s3)n2)C1 [Compound I-3] | 19.3 nM
C=CC(=O)N1CC[C@@H](Nc2nccc(Nc3ncc(C(=O)Nc4c(C)cccc4C)s3)n2)C1 [Compound I-4] | 53 nM
C=CC(=O)N1CCC[C@@H](Nc2nccc(Nc3ncc(C(=O)Nc4c(C)cccc4C)s3)n2)C1 [Compound I-6] | 69.6 nM
C=CC(=O)N1CCCCC(Nc2nccc(Nc3ncc(C(=O)Nc4c(C)cccc4C)s3)n2)C1 (stereo not drawn) [Compound I-7] | 22 nM
C=CC(=O)N1CCC(CNc2nccc(Nc3ncc(C(=O)Nc4c(C)cccc4C)s3)n2)C1 (stereo not drawn) [Compound I-8] | 75 nM
CCC(=O)N1CC[C@H](Nc2nccc(Nc3ncc(C(=O)Nc4c(C)cccc4C)s3)n2)C1 [Compound I-9] | 9.84 nM
C=CC(=O)N1CC[C@H](Nc2nccc(Nc3ncc(C(=O)Nc4c(C)cccc4Cl)s3)n2)C1 [Compound I-10] | 170 nM
C=CC(=O)N1CCCCC(Nc2nccc(Nc3ncc(C(=O)Nc4c(C)cccc4Cl)s3)n2)C1 (stereo not drawn) [Compound I-11] | 129 nM
C=CC(=O)N1CCCC(Cn2ccc(Nc3ncc(C(=O)Nc4c(C)cccc4Cl)s3)n2)C1 (stereo not drawn) [II-2] | 196 nM

What follows are compounds tested on HBL-1 (assay: CellTiter-Glo Luminescent cell viability assay). Conditions: cell survival, 72 hours.
Assay type: cell-based
Description: as §1

Structure (SMILES) | EC50
C=CC(=O)N1CC[C@H](Nc2nc(CN3CCOCC3)cc(Nc3ncc(C(=O)Nc4c(C)cccc4Cl)s3)n2)C1 [Compound I-1] | 522 nM
C=CC(=O)N1CC[C@H](Nc2nc(CN3CCOCC3)cc(Nc3ncc(C(=O)Nc4c(C)cccc4C)s3)n2)C1 [Compound I-2] | 1670 nM
C=CC(=O)N1CC[C@H](Nc2nccc(Nc3ncc(C(=O)Nc4c(C)cccc4C)s3)n2)C1 [Compound I-3] | 669 nM
C=CC(=O)N1CC[C@@H](Nc2nccc(Nc3ncc(C(=O)Nc4c(C)cccc4C)s3)n2)C1 [Compound I-4] | 449 nM
C=CC(=O)N1CCC[C@@H](Nc2nccc(Nc3ncc(C(=O)Nc4c(C)cccc4C)s3)n2)C1 [Compound I-6] | 229 nM
C=CC(=O)N1CCCCC(Nc2nccc(Nc3ncc(C(=O)Nc4c(C)cccc4C)s3)n2)C1 (stereo not drawn) [Compound I-7] | 70 nM
C=CC(=O)N1CCC(CNc2nccc(Nc3ncc(C(=O)Nc4c(C)cccc4C)s3)n2)C1 (stereo not drawn) [Compound I-8] | 522 nM
CCC(=O)N1CC[C@H](Nc2nccc(Nc3ncc(C(=O)Nc4c(C)cccc4C)s3)n2)C1 [Compound I-9] | 220 nM
C=CC(=O)N1CC[C@H](Nc2nccc(Nc3ncc(C(=O)Nc4c(C)cccc4Cl)s3)n2)C1 [Compound I-10] | 1640 nM
C=CC(=O)N1CCCCC(Nc2nccc(Nc3ncc(C(=O)Nc4c(C)cccc4Cl)s3)n2)C1 (stereo not drawn) [Compound I-11] | 623 nM
C=CC(=O)N1CCCC(Cn2ccc(Nc3ncc(C(=O)Nc4c(C)cccc4Cl)s3)n2)C1 (stereo not drawn) [II-2] | 1000 nM

Each compound was assayed on TMD-8 (assay: CellTiter-Glo Luminescent cell viability assay). Conditions: cell survival, 72 hours.
Assay type: cell-based
Description: as §1

Structure (SMILES) | EC50
C=CC(=O)N1CC[C@H](Nc2nc(CN3CCOCC3)cc(Nc3ncc(C(=O)Nc4c(C)cccc4Cl)s3)n2)C1 [Compound I-1] | 301 nM
C=CC(=O)N1CC[C@H](Nc2nc(CN3CCOCC3)cc(Nc3ncc(C(=O)Nc4c(C)cccc4C)s3)n2)C1 [Compound I-2] | 311 nM
C=CC(=O)N1CC[C@H](Nc2nccc(Nc3ncc(C(=O)Nc4c(C)cccc4C)s3)n2)C1 [Compound I-3] | 158 nM
C=CC(=O)N1CC[C@@H](Nc2nccc(Nc3ncc(C(=O)Nc4c(C)cccc4C)s3)n2)C1 [Compound I-4] | 315 nM
C=CC(=O)N1CCC[C@@H](Nc2nccc(Nc3ncc(C(=O)Nc4c(C)cccc4C)s3)n2)C1 [Compound I-6] | 80.2 nM
C=CC(=O)N1CCCCC(Nc2nccc(Nc3ncc(C(=O)Nc4c(C)cccc4C)s3)n2)C1 (stereo not drawn) [Compound I-7] | 49 nM
C=CC(=O)N1CCC(CNc2nccc(Nc3ncc(C(=O)Nc4c(C)cccc4C)s3)n2)C1 (stereo not drawn) [Compound I-8] | 301 nM
CCC(=O)N1CC[C@H](Nc2nccc(Nc3ncc(C(=O)Nc4c(C)cccc4C)s3)n2)C1 [Compound I-9] | 70.9 nM
C=CC(=O)N1CC[C@H](Nc2nccc(Nc3ncc(C(=O)Nc4c(C)cccc4Cl)s3)n2)C1 [Compound I-10] | 1010 nM
C=CC(=O)N1CCCCC(Nc2nccc(Nc3ncc(C(=O)Nc4c(C)cccc4Cl)s3)n2)C1 (stereo not drawn) [Compound I-11] | 500 nM
C=CC(=O)N1CCCC(Cn2ccc(Nc3ncc(C(=O)Nc4c(C)cccc4Cl)s3)n2)C1 (stereo not drawn) [II-2] | 929 nM

These compounds were tested on Ramos (assay: CellTiter-Glo Luminescent cell viability assay). Conditions: cell survival, 72 hours.
Assay type: cell-based
Description: as §1

Structure (SMILES) | EC50
C=CC(=O)N1CC[C@H](Nc2nc(CN3CCOCC3)cc(Nc3ncc(C(=O)Nc4c(C)cccc4C)s3)n2)C1 [Compound I-2] | > 20 µM
C=CC(=O)N1CC[C@H](Nc2nccc(Nc3ncc(C(=O)Nc4c(C)cccc4C)s3)n2)C1 [Compound I-3] | > 20 µM
C=CC(=O)N1CC[C@@H](Nc2nccc(Nc3ncc(C(=O)Nc4c(C)cccc4C)s3)n2)C1 [Compound I-4] | > 20 µM
C=CC(=O)N1CCCCC(Nc2nccc(Nc3ncc(C(=O)Nc4c(C)cccc4C)s3)n2)C1 (stereo not drawn) [Compound I-7] | 0.133 µM
C=CC(=O)N1CCC(CNc2nccc(Nc3ncc(C(=O)Nc4c(C)cccc4C)s3)n2)C1 (stereo not drawn) [Compound I-8] | 7.97 µM
CCC(=O)N1CC[C@H](Nc2nccc(Nc3ncc(C(=O)Nc4c(C)cccc4C)s3)n2)C1 [Compound I-9] | > 20 µM
C=CC(=O)N1CC[C@H](Nc2nccc(Nc3ncc(C(=O)Nc4c(C)cccc4Cl)s3)n2)C1 [Compound I-10] | 0.012 µM
C=CC(=O)N1CCCCC(Nc2nccc(Nc3ncc(C(=O)Nc4c(C)cccc4Cl)s3)n2)C1 (stereo not drawn) [Compound I-11] | 1.58 µM
C=CC(=O)N1CCCC(Cn2ccc(Nc3ncc(C(=O)Nc4c(C)cccc4Cl)s3)n2)C1 (stereo not drawn) [II-2] | > 20 µM

The compounds below were run on MWCL-1 (assay: CellTiter-Glo Luminescent cell viability assay). Conditions: cell survival, 72 hours.
Assay type: cell-based
Description: as §1

Structure (SMILES) | EC50
C=CC(=O)N1CC[C@H](Nc2nc(CN3CCOCC3)cc(Nc3ncc(C(=O)Nc4c(C)cccc4Cl)s3)n2)C1 [Compound I-1] | 50 nM
C=CC(=O)N1CC[C@H](Nc2nc(CN3CCOCC3)cc(Nc3ncc(C(=O)Nc4c(C)cccc4C)s3)n2)C1 [Compound I-2] | 67 nM
C=CC(=O)N1CC[C@H](Nc2nccc(Nc3ncc(C(=O)Nc4c(C)cccc4C)s3)n2)C1 [Compound I-3] | 55.2 nM
C=CC(=O)N1CC[C@@H](Nc2nccc(Nc3ncc(C(=O)Nc4c(C)cccc4C)s3)n2)C1 [Compound I-4] | 85 nM
C=CC(=O)N1CCC[C@@H](Nc2nccc(Nc3ncc(C(=O)Nc4c(C)cccc4C)s3)n2)C1 [Compound I-6] | 93.7 nM
C=CC(=O)N1CCCCC(Nc2nccc(Nc3ncc(C(=O)Nc4c(C)cccc4C)s3)n2)C1 (stereo not drawn) [Compound I-7] | 19 nM
C=CC(=O)N1CCC(CNc2nccc(Nc3ncc(C(=O)Nc4c(C)cccc4C)s3)n2)C1 (stereo not drawn) [Compound I-8] | 103 nM
CCC(=O)N1CC[C@H](Nc2nccc(Nc3ncc(C(=O)Nc4c(C)cccc4C)s3)n2)C1 [Compound I-9] | 25 nM
C=CC(=O)N1CC[C@H](Nc2nccc(Nc3ncc(C(=O)Nc4c(C)cccc4Cl)s3)n2)C1 [Compound I-10] | 191 nM
C=CC(=O)N1CCCCC(Nc2nccc(Nc3ncc(C(=O)Nc4c(C)cccc4Cl)s3)n2)C1 (stereo not drawn) [Compound I-11] | 245 nM
C=CC(=O)N1CCCC(Cn2ccc(Nc3ncc(C(=O)Nc4c(C)cccc4Cl)s3)n2)C1 (stereo not drawn) [II-2] | 166 nM

Each compound was assayed against HCK (Homo sapiens (Human), UniProt P08631) (assay: HCK inhibitory activity). Conditions: not given.
Assay type: biochemical

Sequence of HCK (P08631 whole entry): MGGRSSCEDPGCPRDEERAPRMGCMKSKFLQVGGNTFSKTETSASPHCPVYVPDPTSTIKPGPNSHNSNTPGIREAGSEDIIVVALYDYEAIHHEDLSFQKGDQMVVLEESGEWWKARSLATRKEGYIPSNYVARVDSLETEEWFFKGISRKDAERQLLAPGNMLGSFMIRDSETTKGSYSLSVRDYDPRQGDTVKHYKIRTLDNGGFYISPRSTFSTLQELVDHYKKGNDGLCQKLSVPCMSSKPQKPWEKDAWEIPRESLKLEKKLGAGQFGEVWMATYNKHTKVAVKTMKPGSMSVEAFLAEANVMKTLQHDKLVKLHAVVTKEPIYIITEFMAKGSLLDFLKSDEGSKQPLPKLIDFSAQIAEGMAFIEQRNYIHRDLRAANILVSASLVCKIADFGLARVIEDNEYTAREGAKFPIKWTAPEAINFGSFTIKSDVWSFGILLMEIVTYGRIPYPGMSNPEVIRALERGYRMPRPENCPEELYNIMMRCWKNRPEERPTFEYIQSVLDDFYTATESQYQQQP

Structure (SMILES) | IC50
C=CC(=O)N1CCCCC(Nc2nccc(Nc3ncc(C(=O)Nc4c(C)cccc4C)s3)n2)C1 (stereo not drawn) [Compound I-7] | < 0.495 nM
C=CC(=O)N1CCC(CNc2nccc(Nc3ncc(C(=O)Nc4c(C)cccc4C)s3)n2)C1 (stereo not drawn) [Compound I-8] | < 0.495 nM
CCC(=O)N1CC[C@H](Nc2nccc(Nc3ncc(C(=O)Nc4c(C)cccc4C)s3)n2)C1 [Compound I-9] | < 0.495 nM
